Assay results as given in US10344330B2, “Glatiramer acetate response biomarker mRNA potency assay” (Mylan Inc., priority 2013, dated 2019).
Where “and” joins values, the source holds several entries; their conditions need not be identical. Equal entries are not always repeated. Where two headings read alike, the source gives them in different places.

Assays:
Type in all cases: cell-based, mouse
[1] = system: mIL-10 mRNA in primary LN cells; test: mIL-10 mRNA by real-time PCR in stimulated LN cells of immunized (SJL/J×BALB/C)F1 mice (Example I)
Experimental: Animals were immunized on Day 0.
Each mouse received a total injection volume of […] (250 μg GA). Animals were immunized on Day 0. […] Lymph nodes from immunized mice were removed and isolated.
Expression of cytokine mRNA was quantitatively analyzed 4 and 6 hours after using a Real-Time PCR system (7500, Applied Biosystems).

IL-2 mRNA in LN cells = test: IL-2 mRNA by real-time PCR in LN cells of GA-immunized CD-1, BALB/cByJ, SJL/J mice (Example III); settings: 6 hours
Experimental: (§1) On Day 0, mice were immunized with 250 μg GA (GMA, Mylan Pharmaceuticals, Inc.) and CFA. The GA solution (20 mg/mL) was diluted with Dulbecco's Phosphate-Buffered Saline to 5 mg/mL. The dosing formulation consisted of equal volumes of the diluted GA solution (5 mg/mL) and CFA solution, mixed until well-emulsified. Animals were weighed and allocated to groups. Animals were dosed by injection into four footpads. The injection volume per animal was 0.1 mL (about 10 μL into each front footpad, and 40 μL into each hind footpad).
(§2) Immunized animals were euthanized by cervical dislocation on Day 10 post-immunization. Lymph node cells were isolated from animals and treated with Myelin Basic Protein (MBP, a negative control), Concanavalin A (ConA, a positive control) or GA as shown in Table 16. Lymph nodes in the axillary and popliteal regions were removed aseptically in a purifier clean bench. […] The LN were then washed 3 times with −5 mL of RPMI medium, and isolated by pressing the LN with a syringe plunger. […] The cell suspension was centrifuged at about 200×g for 10 minutes at about 4° C. and re-suspended in ice cold enriched DCCM-1 medium. Cells were seeded in 96-well tissue culture plates.
(§3) LN cells isolated from GA-immunized animals were stimulated with GA (GMA, Mylan Pharmaceuticals, Inc.) at concentrations as indicated in Tables 16 and 17. A positive control was prepared by treating LN cells with 2.5 μg/mL concavalin A (ConA, a non-specific T cell stimulant). Myelin basic protein (MBP, 10 μg/mL) and enriched DCCM-1 medium served as negative controls. The cells from all groups each were stimulated with the same GA lot. Each reaction was set up in triplicate.
(§4) After incubation at about 37° C. in a humidified CO2 incubator for 6 hours, the cells were lysed for total RNA isolation. Total RNA was isolated from treated LN cells using SV 96 Total RNA Isolation System according to the manufacturer's protocol (Promega, Cat. #Z3500). Cells were washed once with Phosphate Buffered Saline (PBS) and lysed in RNA lysis buffer. The lysate was transferred to wells of the SV 96 binding plate. Samples were washed with RNA wash solution and treated with DNase. Total RNA was eluted with nuclease-free water from the binding plate.
(§5) After the reverse transcriptase reaction was completed, cDNA samples were used directly for real-time PCR to measure the response biomarker mRNA levels produced by the stimulated cells. […] All probes for target genes contained FAM dye, and probes for the internal control contained VIC®/MGB dye. Samples will be prepared and run in 96-well plates using a Real-Time PCR system (7500, Life Technologies). This system allows direct detection of PCR-product formation by measuring the increase in fluorescent emission continuously during the PCR reaction. A relative quantitation method was used to analyze changes in mouse IL-2, IL-4, IL-5, IL-10, IL-13, IFN-γ and TNF-α expression in GA-treated samples relative to the untreated control (enriched DCCM-1 treated) samples. The Real-Time PCR program was:
(§6) The levels of mouse cytokine amplicons (IL-2, IL-4, IL-5, IL-10, IL-13, mIFN-γ and TNF-α) were normalized to internal probe levels (GAPDH) from the same samples. The following equations were used to calculate the relative increase in response to GA stimulation compared to the control sample: ΔCT=CT_target−CT_reference ΔΔCT=−ΔCT_Treated−CT_VC

IL-5 mRNA in LN cells = test: IL-5 mRNA by real-time PCR in LN cells of GA-immunized CD-1, BALB/cByJ, SJL/J mice (Example III); settings: 6 hours
Experimental: as §1, §2, §3, §4, §5, §6

[2] = Group 1B (GA + CFA), 4 hours post-stimulation, GA 10, MBP 10, ConA 2.5 μg/mL, reference GAPDH
[3] = Group 1B (GA + CFA), 6 hours post-stimulation, GA 10, MBP 10, ConA 2.5 μg/mL, reference GAPDH
[4] = Group 2B (Mannitol + CFA), 4 hours post-stimulation, GA 10, MBP 10, ConA 2.5 μg/mL, reference GAPDH
[5] = Group 2B (Mannitol + CFA), 6 hours post-stimulation, GA 10, MBP 10, ConA 2.5 μg/mL, reference GAPDH
[6] = Group 1C: CD-1, GA-immunized, stimulation 2.5 μg/mL
[7] = Group 2C: BALB/cByJ, GA-immunized, stimulation 2.5 μg/mL
[8] = Group 3C: SJL/J, GA-immunized, stimulation 2.5 μg/mL
[9] = Group 1C: CD-1, GA-immunized, stimulation 0.3 μg/mL
[10] = Group 1C: CD-1, GA-immunized, stimulation 1 μg/mL
[11] = Group 1C: CD-1, GA-immunized, stimulation 3 μg/mL
[12] = Group 1C: CD-1, GA-immunized, stimulation 10 μg/mL
[13] = Group 2C: BALB/cByJ, GA-immunized, stimulation 0.3 μg/mL
[14] = Group 2C: BALB/cByJ, GA-immunized, stimulation 1 μg/mL
[15] = Group 2C: BALB/cByJ, GA-immunized, stimulation 3 μg/mL
[16] = Group 2C: BALB/cByJ, GA-immunized, stimulation 10 μg/mL
[17] = Group 3C: SJL/J, GA-immunized, stimulation 0.3 μg/mL
[18] = Group 3C: SJL/J, GA-immunized, stimulation 1 μg/mL
[19] = Group 3C: SJL/J, GA-immunized, stimulation 3 μg/mL
[20] = Group 3C: SJL/J, GA-immunized, stimulation 10 μg/mL

For “Concanavalin A [ConA, reference compound]”, the “mIL-10 mRNA” value [1, 2] was 2.3 fold change vs control, the “mIL-10 mRNA” value [1, 3] was 1.2 fold change vs control and the “mIL-10 mRNA” value [1, 4] was 1.6 fold change vs control. For the same molecule, the “mIL-10 mRNA” value [1, 5] was 3.1 fold change vs control, the “IL-2 mRNA Expression” value (IL-2 mRNA in LN cells; [6]) was 17.1 fold change vs control and the “IL-2 mRNA Expression” value (IL-2 mRNA in LN cells; [7]) was 231.7 fold change vs control. For the same molecule, the “IL-2 mRNA Expression” value (IL-2 mRNA in LN cells; [8]) was 61.9 fold change vs control, the “IL-5 mRNA Expression” value (IL-5 mRNA in LN cells; [6]) was 19.1 fold change vs control and the “IL-5 mRNA Expression” value (IL-5 mRNA in LN cells; [7]) was 9.1 fold change vs control. For the same molecule, the “IL-5 mRNA Expression” value (IL-5 mRNA in LN cells; [8]) was 9.7 fold change vs control.

“L-glutamic acid polymer with L-alanine, L-lysine and L-tyrosine, acetate (salt) [GA]” was tested, and the “mIL-10 mRNA” value [1] was 1.7 fold change vs control and 1.4 fold change vs control and 1.2 fold change vs control and 0.9 fold change vs control, the “IL-2 mRNA Expression” value (IL-2 mRNA in LN cells; [9]) was 1.0 fold change vs control and the “IL-2 mRNA Expression” value (IL-2 mRNA in LN cells; [10]) was 1.6 fold change vs control. The “IL-2 mRNA Expression” value (IL-2 mRNA in LN cells; [11]) was 2.9 fold change vs control, the “IL-2 mRNA Expression” value (IL-2 mRNA in LN cells; [12]) was 4.3 fold change vs control and the “IL-2 mRNA Expression” value (IL-2 mRNA in LN cells; [13]) was 4.0 fold change vs control. The “IL-2 mRNA Expression” value (IL-2 mRNA in LN cells; [14]) was 11.7 fold change vs control, the “IL-2 mRNA Expression” value (IL-2 mRNA in LN cells; [15]) was 27.4 fold change vs control and the “IL-2 mRNA Expression” value (IL-2 mRNA in LN cells; [16]) was 38.0 fold change vs control. The “IL-2 mRNA Expression” value (IL-2 mRNA in LN cells; [17]) was 1.3 fold change vs control, the “IL-2 mRNA Expression” value (IL-2 mRNA in LN cells; [18]) was 4.7 fold change vs control and the “IL-2 mRNA Expression” value (IL-2 mRNA in LN cells; [19]) was 11.0 fold change vs control. For the same molecule, the “IL-2 mRNA Expression” value (IL-2 mRNA in LN cells; [20]) was 22.0 fold change vs control, the “IL-5 mRNA Expression” value (IL-5 mRNA in LN cells; [9]) was 1.0 fold change vs control and the “IL-5 mRNA Expression” value (IL-5 mRNA in LN cells; [10]) was 1.8 fold change vs control. For the same molecule, the “IL-5 mRNA Expression” value (IL-5 mRNA in LN cells; [11]) was 3.2 fold change vs control, the “IL-5 mRNA Expression” value (IL-5 mRNA in LN cells; [12]) was 5.4 fold change vs control and the “IL-5 mRNA Expression” value (IL-5 mRNA in LN cells; [13]) was 0.5 fold change vs control. For the same molecule, the “IL-5 mRNA Expression” value (IL-5 mRNA in LN cells; [14]) was 1.6 fold change vs control, the “IL-5 mRNA Expression” value (IL-5 mRNA in LN cells; [15]) was 2.3 fold change vs control and the “IL-5 mRNA Expression” value (IL-5 mRNA in LN cells; [16]) was 3.5 fold change vs control. The “IL-5 mRNA Expression” value (IL-5 mRNA in LN cells; [17]) was 0.6 fold change vs control, the “IL-5 mRNA Expression” value (IL-5 mRNA in LN cells; [18]) was 2.1 fold change vs control and the “IL-5 mRNA Expression” value (IL-5 mRNA in LN cells; [19]) was 5.1 fold change vs control. For the same molecule, the “IL-5 mRNA Expression” value (IL-5 mRNA in LN cells; [20]) was 4.3 fold change vs control.

B1: MBP: myelin basic protein, a negative control (protein, UniProt P02686 1-304, looked up)
Myelin basic protein: MGNHAGKRELNAEKASTNSETNRGESEKKRNLGELSRTTSEDNEVFGEADANQNNGTSSQDTAVTDSKRTADPKNAWQDAHPADPGSRPHLIRLFSRDAPGREDNTFKDRPSESDELQTIQEDSAATSESLDVMASQKRPSQRHGSKYLATASTMDHARHGFLPRHRDTGILDSIGRFFGGDRGAPKRGSGKDSHHPARTAHYGSLPQKSHGRTQDENPVVHFFKNIVTPRTPPPSQGKGRGLSLSRFSWGAEGQRPGFGYGGRASDYKSAHKGFKGVDAQGTLSKIFKLGGRDSRSGSPMARR
For B1, the “mIL-10 mRNA” value [1, 2] was 1.0 fold change vs control, the “mIL-10 mRNA” value [1, 3] was 0.6 fold change vs control and the “mIL-10 mRNA” value [1, 4] was 1.0 fold change vs control. The “mIL-10 mRNA” value [1, 5] was 0.5 fold change vs control, the “IL-2 mRNA Expression” value (IL-2 mRNA in LN cells; [12]) was 0.9 fold change vs control and the “IL-2 mRNA Expression” value (IL-2 mRNA in LN cells; [16]) was 2.7 fold change vs control. For the same molecule, the “IL-2 mRNA Expression” value (IL-2 mRNA in LN cells; [20]) was 0.5 fold change vs control, the “IL-5 mRNA Expression” value (IL-5 mRNA in LN cells; [12]) was 0.8 fold change vs control and the “IL-5 mRNA Expression” value (IL-5 mRNA in LN cells; [16]) was 0.2 fold change vs control. The “IL-5 mRNA Expression” value (IL-5 mRNA in LN cells; [20]) was 0.8 fold change vs control.
